From patent US20250073184A1, “CANNABIGEROQUINONE COMPOUNDS, COMPOSITIONS INCLUDING SUCH COMPOUNDS, AND USES OF SUCH COMPOUNDS AND COMPOSITIONS” (Juva Life, Inc., priority 2021, published 2025) come the findings set out here.

Broadly, the EC50 is the concentration at which the effect is half-maximal.

Where two headings read alike, the source gives them in different places.

One test deals with T1, recombinant human LOX-5 (Homo sapiens, UniProt P09917).
T1 construct: expressed in insect cells (Amino Acids 1-674) was obtained from Cayman; purchased Cayman 60402; host or cells: insect cells
T1 sequence (P09917 1-674): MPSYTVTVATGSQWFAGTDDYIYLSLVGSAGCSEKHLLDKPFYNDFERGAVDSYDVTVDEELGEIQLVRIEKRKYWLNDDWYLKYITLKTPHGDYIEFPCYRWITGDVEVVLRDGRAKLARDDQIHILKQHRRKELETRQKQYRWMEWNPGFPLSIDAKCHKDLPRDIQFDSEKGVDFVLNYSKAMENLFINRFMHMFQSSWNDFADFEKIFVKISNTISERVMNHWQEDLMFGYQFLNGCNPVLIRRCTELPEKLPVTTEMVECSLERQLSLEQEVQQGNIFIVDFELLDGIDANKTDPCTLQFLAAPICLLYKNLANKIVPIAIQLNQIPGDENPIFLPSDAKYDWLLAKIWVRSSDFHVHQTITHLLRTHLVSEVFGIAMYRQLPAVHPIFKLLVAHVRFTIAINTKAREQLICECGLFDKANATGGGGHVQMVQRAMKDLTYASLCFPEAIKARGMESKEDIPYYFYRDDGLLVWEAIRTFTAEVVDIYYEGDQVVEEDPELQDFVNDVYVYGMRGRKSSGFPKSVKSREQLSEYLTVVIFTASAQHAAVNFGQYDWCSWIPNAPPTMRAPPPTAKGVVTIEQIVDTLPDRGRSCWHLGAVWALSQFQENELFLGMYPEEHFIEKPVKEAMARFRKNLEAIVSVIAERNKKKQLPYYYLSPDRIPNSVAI
Briefly: Biochemical LOX-5 assay. How it is done:
The LOX-5 assay was performed in assay buffer comprising: 50 mM Tris (pH 7.5), 2 mM EDTA, 2 mM CaCl2), 3 uM AA, 10 uM ATP, 10 uM H2DCFDA, and recombinant enzyme (50 mU per 20 ul reaction, as defined by manufacturer). Serially diluted compounds were prepared in DMSO in Echo qualified 384 well plates. An assay buffer was then prepared without AA and ATP supplemented with 20 uM H2DCFDA. 10 uL of the supplemented buffer was dispensed into control (no enzyme) wells in the black 384 well assay plate. Next, a 2× enzyme solution was prepared, comprising 100 mU LOX-5 enzyme in the supplemented assay buffer. 10 uL of the 2× enzyme solution was then dispensed into test wells in the black 384 well assay plate. Serially diluted compounds were added to the assay plate by acoustic dispensing (Labcyte 550). Control wells received DMSO only.
Next, the 2× substrate was prepared to comprise 6 uM arachidonic acid and 20 uM ATP in the assay buffer. 10 uL of the 2× substrate was then added to all wells in the assay plate. The plate was incubated for 20 min.
[formula] • where RFU100% is fluorescence in control samples without compound, RFU0% is fluorescence in control samples without LOX-5, and RFUcompound fluorescence in a sample with compound.
(§1) The calculated %-Inh values were plotted against compound concentration. To determine EC50 values, dose-response curves were fitted by a 4-parameter sigmoid inhibition model using XLFit® software (IDBS).

Test [1] concerns the target T2, Recombinant human ALOX15 (Arachidonate 15-Lipoxygenase) (Homo sapiens, UniProt P16050).
T2 construct: full length encompassing amino acids 2-662(end); purchased BPS Biosciences 50220
T2 sequence (P16050 2-662): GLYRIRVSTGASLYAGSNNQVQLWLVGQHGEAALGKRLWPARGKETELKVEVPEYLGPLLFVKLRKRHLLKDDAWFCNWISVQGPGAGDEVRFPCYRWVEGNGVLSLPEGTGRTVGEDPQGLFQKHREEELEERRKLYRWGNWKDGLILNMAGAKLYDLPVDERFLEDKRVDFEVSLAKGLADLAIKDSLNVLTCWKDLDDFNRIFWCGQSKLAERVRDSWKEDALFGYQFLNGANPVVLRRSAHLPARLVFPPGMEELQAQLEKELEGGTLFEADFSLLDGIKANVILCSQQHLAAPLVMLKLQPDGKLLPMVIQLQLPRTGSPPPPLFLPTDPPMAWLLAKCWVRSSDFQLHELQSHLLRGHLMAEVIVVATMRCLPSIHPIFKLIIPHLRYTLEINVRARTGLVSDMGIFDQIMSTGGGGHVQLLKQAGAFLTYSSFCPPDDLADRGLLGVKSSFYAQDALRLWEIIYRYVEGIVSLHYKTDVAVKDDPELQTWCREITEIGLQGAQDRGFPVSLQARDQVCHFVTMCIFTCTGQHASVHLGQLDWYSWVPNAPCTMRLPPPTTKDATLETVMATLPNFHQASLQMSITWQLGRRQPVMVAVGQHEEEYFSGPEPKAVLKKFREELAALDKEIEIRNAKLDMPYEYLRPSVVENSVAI
Briefly: Biochemical LOX-15 assay. How it is done:
The LOX-15 assay was performed in assay buffer comprising: 50 mM Tris (pH 7.5), 5 uM DHR, 50 uM AA, and 50 nM recombinant enzyme. Serially diluted compounds were prepared in DMSO in Echo qualified 384 well plates. An assay buffer was then prepared […] supplemented 10 uM DHRA. 10 uL of the supplemented buffer was dispensed into control (no enzyme) wells in the black 384 well assay plate. Next, a 2× enzyme solution was prepared, comprising 100 nM LOX-15 enzyme in the supplemented assay buffer. 10 μL of the 2× enzyme solution was then dispensed into test wells in the black 384 well assay plate. Serially diluted compounds were added to the assay plate by acoustic dispensing (Labcyte 550). Control wells received DMSO only.
Next, the 2× substrate was prepared to comprise 100 uM arachidonic acid in the assay buffer. 10 uL of the 2× substrate was then added to all wells in the assay plate. The plate was incubated for 3 hours.
where RFU100% is fluorescence in control samples without compound, RFU0% is fluorescence in control samples without LOX-15, and RFUcompound fluorescence in a sample with compound.
as §1

[2] abbreviates: recombinant enzyme, read-out: Inhibitory Activity EC50, 5-Lox.
[3] abbreviates: recombinant enzyme, read-out: Inhibitory Activity EC50, 15-Lox.

As to Cannabigerol Quinone [Formula VI], on recombinant human LOX-5, the “stronger inhibition for 5-Lox compared to Cox-2” value is on record as “over 200 fold”. The EC50 at recombinant human LOX-5 (setting [2]) came out at 270 nM; in test [1] (setting [3]), 980 nM. The “stronger inhibition of 15-Lox compared to Cox-2” value in test [1] is on record as “over 60 fold”.
Regarding `CCCCCc1cc(OC)c(C/C=C(\C)CCC=C(C)C)c(O)c1OC` [Formula XLII], the EC50 on recombinant human LOX-5 was 210 nM; in test [1], 18000 nM.
Consider `CCCCCc1cc(OC(C)=O)c(C/C=C(\C)CCC=C(C)C)c(O)c1OC(C)=O` [Formula XLIII], for which the EC50 amounted to 340 nM at recombinant human LOX-5 and 8400 nM in test [1].
On the same counts, the results for `CCCCCC1=C(NC)C(=O)C(C/C=C(\C)CCC=C(C)C)=C(O)C1=O` [Formula XLI] are 480 nM and 28800 nM.
For `CCCCCc1cc(O)c(C/C=C(\C)CCC=C(C)C)c(O)c1O` [Formula XXXIX], the EC50 on recombinant human LOX-5 (setting [2]) came to 200 nM; in test [1] (setting [3]), 2820 nM.
